Experimental findings from patent US20230303589A1, “CRYSTALLINE FORMS OF CFTR MODULATORS” (Vertex Pharmaceuticals Incorporated, priority 2020, published 2023) are described below.

Usually EC50 stands for the concentration needed to bring the measured effect to its halfway point.

Data set [1] in a line: Pharmacokinetics after a single oral administration in male dogs. The class given is in vivo. Conditions: nominal dose 1 mg/kg, mean oral bioavailability.
A short description of data set [2]: Safety analysis of an ongoing clinical study. It counts as in vivo. How it is done:
A safety analysis of an ongoing clinical study was performed for 37 subjects in Cohorts A1 to A5, 33 subjects in Cohort B, and 17 subjects in Cohort C, who were exposed to at least 1 dose of study drug (Compound I or placebo) as a monotherapy and as part of a triple combination with Compound II or Compound III.

Data set [3] can be described thus: Pharmacokinetics after a single oral administration in male monkeys. The class given is in vivo. Conditions: nominal dose 1 mg/kg, mean oral bioavailability.
For data set [4], the target named is T1, F508del CFTR (Homo sapiens, UniProt P13569, DEL508-508).
T1 construct: HBE cells derived from 3 F508del homozygous donors; endogenous in cells; host or cells: HBE cells from 3 F508del homozygous donors
Put plainly: Ussing chamber chloride transport, F508del/MF HBE. It counts as cell-based. The note with it: for chloride transport: treatment for 16 to 24 h. The procedure: (§1) Ussing chamber studies were conducted to measure F508del CFTR-mediated chloride transport in HBE cells derived from 3 F508del homozygous donors and 5 F508del/MF donors (G542X, 3 donors; E585X, 1 donor; 3905InsT, 1 donor). As a positive control, maximally effective concentrations of N-(benzenesulfonyl)-6-[3-[2-[1-(trifluoromethyl)cyclopropyl] ethoxy] pyrazol-1-yl]-2-[ ( 4S)-2,2,4-trimethylpyrrolidin-1-yl] pyridine-3-carboxamide (see WO 2018/064632) and N-[(6-amino-2-pyridyl)sulfonyl]-6-(3-fluoro-5-isobutoxy-phenyl)-2-[(4S)-2,2,4-trimethylpyrrolidin-1-yl]pyridine-3-carboxamide (see WO 2016/057572) in combination with Compound II/Compound III were included in each experiment.

Data set [5] in a line: Systemic exposure with increasing dose and repeated oral administration for 28 d in dogs. The class given is in vivo.
The target in data set [6] is T1, F508del CFTR. Nature of the data set: Ussing chamber chloride transport, F508del/F508del HBE. The note with it: for chloride transport: treatment for 16 to 24 h. It counts as cell-based. How it is done:
as §1

Data set [7] in a line: Pharmacokinetics after a single oral administration in male rats. It counts as in vivo. Conditions: nominal dose 3 mg/kg, mean oral bioavailability.
Data set [8] in a line: Systemic exposure with increasing dose and repeated oral administration for 28 d in rats. The class given is in vivo.
In data set [9] the target is CFTR (Homo sapiens, UniProt P13569). Put plainly: Membrane potential dye assay in human intestinal epithelial enteroid cells. It counts as cell-based. Conditions: CFTR-mediated chloride transport; 18-24 h incubation; acute 10 µM forskolin and 300 nM Compound III. How it is done:
Base medium (ADF+++) consisted of Advanced DMEM/Ham’s F12, 2 mM Glutamax, 10 mM HEPES, […] penicillin/streptomycin.
Intestinal enteroid maintenance medium (IEMM) consisted of ADF+++, 1x B27 supplement, 1x N2 supplement, 1.25 mM N-acetyl cysteine, 10 mM Nicotinamide, 50 ng/mL hEGF, 10 nM Gastrin, 1 µg/mL hR-spondin-1, 100 ng/mL hNoggin, TGF-b type 1 inhibitor A-83-01, 100 µg/mL Primocin, 10 µM P38 MAPK inhibitor SB202190.
Bath 1 Buffer consisted of 1 mM MgC12, 160 mM NaCl, 4.5 mM KC1, 10 mM HEPES, 10 mM Glucose, 2 mM CaCl2.
Chloride Free Buffer consisted of 1 mM Magnesium Gluconate, 2 mM Calcium Gluconate, 4.5 mM Potassium Gluconate, 160 mM Sodium Gluconate, 10 mM HEPES, 10 mM Glucose.
Bath1 Dye Solution consisted of Bath 1 Buffer, 0.04% Pluronic F127, 20 µM Methyl Oxonol, 30 µM CaCCinh-A01, 30 µM Chicago Sky Blue. […]
Enteroid cells were incubated with test compound in IEMM for 18-24 h at 37° C., 95% humidity and 5% CO2. […] Chloride transport was initiated by addition of Chloride Free Dye Stimulation Solution and the fluorescence signal was read for 15 min. […] Chloride transport was then expressed as a percentage of the chloride transport following treatment with 3 µM Compound I, 3 µM Compound II, and 300 nM acute Compound III triple combination control (% Activity).

The mark [10] stands for this setting: with a fixed combination of Compound II.
The mark [11] stands for this setting: with a fixed concentration of Compound III or Compound II/Compound III.

T1 sequence (P13569 with tags, fused parts or gaps DEL508-508): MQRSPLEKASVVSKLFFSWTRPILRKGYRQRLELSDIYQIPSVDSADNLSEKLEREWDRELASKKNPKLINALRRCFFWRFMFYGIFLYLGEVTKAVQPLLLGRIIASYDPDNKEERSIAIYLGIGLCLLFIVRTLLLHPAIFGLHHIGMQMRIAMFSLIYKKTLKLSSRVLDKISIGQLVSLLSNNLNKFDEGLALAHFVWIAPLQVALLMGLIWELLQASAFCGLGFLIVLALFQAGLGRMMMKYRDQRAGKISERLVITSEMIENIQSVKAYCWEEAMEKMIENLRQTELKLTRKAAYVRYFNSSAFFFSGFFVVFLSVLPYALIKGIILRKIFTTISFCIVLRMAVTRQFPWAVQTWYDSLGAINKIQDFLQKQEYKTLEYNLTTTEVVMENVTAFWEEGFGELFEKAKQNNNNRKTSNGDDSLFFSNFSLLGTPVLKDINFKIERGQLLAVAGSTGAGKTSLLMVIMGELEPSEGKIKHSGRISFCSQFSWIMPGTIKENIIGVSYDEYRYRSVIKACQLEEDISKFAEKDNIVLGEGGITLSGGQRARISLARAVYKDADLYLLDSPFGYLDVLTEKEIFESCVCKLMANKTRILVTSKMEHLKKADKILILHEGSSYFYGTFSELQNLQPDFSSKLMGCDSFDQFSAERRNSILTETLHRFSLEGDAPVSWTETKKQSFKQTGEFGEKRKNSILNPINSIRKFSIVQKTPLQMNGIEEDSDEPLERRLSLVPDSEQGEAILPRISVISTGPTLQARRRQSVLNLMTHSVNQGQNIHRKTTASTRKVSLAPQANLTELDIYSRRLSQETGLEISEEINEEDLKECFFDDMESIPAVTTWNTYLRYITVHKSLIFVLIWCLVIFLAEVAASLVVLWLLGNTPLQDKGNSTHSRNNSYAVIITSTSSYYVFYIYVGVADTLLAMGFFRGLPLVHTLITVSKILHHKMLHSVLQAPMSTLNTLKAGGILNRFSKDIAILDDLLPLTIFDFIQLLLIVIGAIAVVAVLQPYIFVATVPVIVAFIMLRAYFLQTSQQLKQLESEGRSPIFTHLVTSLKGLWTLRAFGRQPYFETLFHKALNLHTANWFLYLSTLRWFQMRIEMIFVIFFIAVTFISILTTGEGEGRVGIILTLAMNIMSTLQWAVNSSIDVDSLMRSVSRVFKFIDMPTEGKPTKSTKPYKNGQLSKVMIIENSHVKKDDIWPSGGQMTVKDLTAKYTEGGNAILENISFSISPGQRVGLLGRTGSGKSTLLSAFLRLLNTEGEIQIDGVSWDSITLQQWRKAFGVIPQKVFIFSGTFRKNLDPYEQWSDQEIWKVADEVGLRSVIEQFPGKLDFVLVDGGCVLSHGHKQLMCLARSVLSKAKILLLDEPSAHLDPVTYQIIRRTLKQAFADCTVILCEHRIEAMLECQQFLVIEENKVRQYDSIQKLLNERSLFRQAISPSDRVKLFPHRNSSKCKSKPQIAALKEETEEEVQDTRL
Sequence of CFTR (P13569 whole entry): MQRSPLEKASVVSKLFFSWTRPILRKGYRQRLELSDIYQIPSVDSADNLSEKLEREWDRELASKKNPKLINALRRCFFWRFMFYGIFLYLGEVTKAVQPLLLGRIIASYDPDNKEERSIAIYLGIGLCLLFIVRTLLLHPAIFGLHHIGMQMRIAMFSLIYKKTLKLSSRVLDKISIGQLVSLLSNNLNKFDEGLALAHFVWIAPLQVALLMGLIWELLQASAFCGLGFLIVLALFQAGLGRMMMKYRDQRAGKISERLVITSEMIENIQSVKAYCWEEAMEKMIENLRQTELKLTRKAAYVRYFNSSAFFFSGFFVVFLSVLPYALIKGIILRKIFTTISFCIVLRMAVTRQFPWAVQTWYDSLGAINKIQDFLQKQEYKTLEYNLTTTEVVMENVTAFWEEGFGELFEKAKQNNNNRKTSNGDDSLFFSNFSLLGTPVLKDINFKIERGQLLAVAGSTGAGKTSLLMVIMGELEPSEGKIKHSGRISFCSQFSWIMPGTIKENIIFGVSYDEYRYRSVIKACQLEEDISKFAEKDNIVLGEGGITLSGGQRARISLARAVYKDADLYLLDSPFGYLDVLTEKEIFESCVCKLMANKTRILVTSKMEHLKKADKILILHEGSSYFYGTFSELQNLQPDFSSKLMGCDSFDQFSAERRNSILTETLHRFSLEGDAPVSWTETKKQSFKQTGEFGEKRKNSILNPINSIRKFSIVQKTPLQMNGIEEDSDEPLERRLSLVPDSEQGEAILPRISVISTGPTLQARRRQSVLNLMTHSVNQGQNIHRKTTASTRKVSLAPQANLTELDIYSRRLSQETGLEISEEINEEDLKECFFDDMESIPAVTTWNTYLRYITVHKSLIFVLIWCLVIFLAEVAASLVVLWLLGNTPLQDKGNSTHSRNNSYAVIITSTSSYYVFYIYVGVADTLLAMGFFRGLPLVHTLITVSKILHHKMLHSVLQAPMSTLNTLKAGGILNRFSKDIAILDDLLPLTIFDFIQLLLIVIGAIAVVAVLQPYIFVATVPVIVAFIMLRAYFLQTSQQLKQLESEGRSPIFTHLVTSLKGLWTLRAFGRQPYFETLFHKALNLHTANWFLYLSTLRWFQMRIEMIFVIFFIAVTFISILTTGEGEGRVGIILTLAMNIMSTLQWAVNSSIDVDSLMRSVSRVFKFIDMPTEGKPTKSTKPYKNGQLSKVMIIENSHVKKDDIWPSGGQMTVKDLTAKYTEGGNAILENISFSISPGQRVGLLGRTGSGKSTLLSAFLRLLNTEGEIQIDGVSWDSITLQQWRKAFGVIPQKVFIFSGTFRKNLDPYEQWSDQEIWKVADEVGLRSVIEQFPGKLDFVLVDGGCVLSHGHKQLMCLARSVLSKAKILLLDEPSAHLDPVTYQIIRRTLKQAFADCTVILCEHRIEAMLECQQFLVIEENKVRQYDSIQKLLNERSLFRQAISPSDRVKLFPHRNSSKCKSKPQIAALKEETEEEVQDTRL

On to `CC1(C)C[C@@H]2CCCNc3cccc(n3)S(=O)(=O)NC(=O)c3ccc(-n4ccc(OCCC5C6(CC6)C56CC6)n4)nc3N1C2` [Compound I, (14S)-8-[3-(2-{Dispiro[2.0.2.1]heptan-7-yl}ethoxy)-1H-pyrazol-1-yl]-12,12-dimethyl-2λ6-thia-3,9,11,18,23-pentaazatetracyclo[17.3.1.111,14.05,10]tetracosa-1(22),5,7,9,19(23),20-hexaene-2,2,4-trione], for which the F in data set [1] is 49.7%; in [3], 12.9%; in data set [7], 76.9%. Besides, the safety and tolerability result was “generally safe and well-tolerated” in data set [2] (monotherapy, up to a dose of 60 mg qd); “generally safe and well-tolerated” in data set [2] (up to 20 mg qd in triple combination with Compound II and Compound III). Further, the chloride transport result in data set [4] and in [6] was “modest increase” throughout. In addition, the synergy analysis result is “modestly synergistic” in data set [4] (setting [10]), “highly synergistic” in data set [4] (setting [11]), “modestly synergistic” in data set [6] (setting [10]) and “highly synergistic” in data set [6] (setting [11]). Further, the “systemic exposure as the dose increased” value in data set [5] and in [8] was “increased in a more than doseproportional manner” throughout. Also, in data set [8], the “Dosenormalized exposure, sex comparison” value is given as “higher in female rats than male rats”. Moreover, in data set [9], the EC50 is under 1 µM.

As to `CC(C)(C)c1cc(C(C)(C)C)c(NC(=O)c2c[nH]c3ccccc3c2=O)cc1O` [Compound III, N-[2,4-bis(1,1-dimethylethyl)-5-hydroxyphenyl]-1,4-dihydro-4-oxoquinoline-3-carboxamide, reference compound], the chloride transport result in data set [4] and in [6] was “strongly potentiated chloride transport in the presence of Compound I or in combination with Compound I/Compound II” in each case.
